Results from ChEMBL document CHEMBL1955786, “New antitumor compounds from Carya cathayensis” (Bioorg Med Chem Lett, 2012).
The source made the active and inactive calls.

Key:
Type in all cases: functional, cell-based
[1] = system: A549; experiment: Cytotoxicity against human A549 cells at 10 to 100 uM after 48 hrs by MTT assay
[2] = system: HCT-116; experiment: Cytotoxicity against human HCT116 cells at 10 to 100 uM after 48 hrs by MTT assay
[3] = system: MCF7; experiment: Cytotoxicity against human MCF7 cells at 10 to 100 uM after 48 hrs by MTT assay
[4] = system: HT-29; experiment: Cytotoxicity against human HT-29 cells at 10 to 100 uM after 48 hrs by MTT assay
[5] = system: A549; experiment: Cytotoxicity against human A549 cells after 48 hrs by MTT assay
[6] = system: HT-29; experiment: Cytotoxicity against human HT-29 cells after 48 hrs by MTT assay
[7] = system: MCF7; experiment: Cytotoxicity against human MCF7 cells after 48 hrs by MTT assay

Measured: Activity

COc1cc(C(=O)C(CO)c2ccc(O)c(OC)c2)ccc1O (centres undefined)
active: [1] | [2] | [3] | [4]

O=Cc1ccc(O)cc1
active: [1] | [2] | [3] | [4]

COc1cc(/C=C\C=O)ccc1O
active: [5] Dose-dependent effect | [6] Dose-dependent effect | [1] | [2] | [3] | [4] | [7] Dose-dependent effect

COc1cc([C@@H]2Oc3c(OC)cc(/C=C/C=O)cc3[C@H]2CO)ccc1O
active: [5] Dose-dependent effect | [6] Dose-dependent effect | [1] | [2] | [3] | [4] | [7] Dose-dependent effect

OC[C@@H]1[C@@H](Cc2ccc(O)cc2)CO[C@H]1c1ccc(O)cc1
inactive: [2]
active: [5] Dose-dependent effect | [6] Dose-dependent effect | [1] | [3] | [4] | [7] Dose-dependent effect

COc1cc([C@H]2Oc3c(OC)cc(/C=C/C=O)cc3[C@@H]2CO)ccc1O
active: [5] Dose-dependent effect | [6] Dose-dependent effect | [1] | [2] | [3] | [4] | [7] Dose-dependent effect

O=C/C=C\c1ccc(O)cc1
active: [1] | [2] | [3] | [4]

COc1cc(O)cc(C=O)c1
active: [1] | [2] | [3] | [4]
